Experimental data: patent US20250313563A1, “GLYCOGEN SYNTHASE KINASE 3 INHIBITORS AND USES THEREOF” (The Broad Institute, Inc., priority 2022, published 2025)
Where two headings read alike, the source gives them in different places.

Key:
[1] = target: GSK3α (GST-full length GSK3α) (Homo sapiens (Human), UniProt P49840); test: GSK3α TR-FRET kinase assay; assay type: biochemical
Procedure, shortened: (§1)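 Full-length GST-tagged human enzyme (1 nM) is exposed to test compound for 30 min before substrates are added. Phosphorylation of a primed biotinylated glycogen synthase peptide proceeds 100 min at room temperature at low ATP (4 μM α; 2 μM β) or high ATP (1 mM). Product is quantified by TR-FRET.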

[2] = target: GSK3b (GST-full length GSK3b) (Homo sapiens (Human), UniProt P49841); test: GSK3b TR-FRET kinase assay; assay type: biochemical
Procedure, shortened: as §1

[3] = 1 nM GSK3α, 4 μM ATP, 30 minute preincubation, geometric mean, read-out: GSK3-A TR-FRET BIOCHEMICAL (TR-FRET), GMean, IC50
[4] = 1 nM GSK3b, 2 μM ATP, 30 minute preincubation, geometric mean, read-out: GSK3-B TR-FRET BIOCHEMICAL (TR-FRET), GMean, IC50
[5] = read-out: GSK3-A (TR-FRET 1 mM ATP), GMean, IC50, 1 mM ATP, geometric mean
[6] = read-out: GSK3-B (TR-FRET 1 mM ATP), GMean, IC50, 1 mM ATP, geometric mean
[7] = 1 nM GSK3α, 4 μM ATP, 30 minute preincubation, Table 16, read-out: GSK3-A TR-FRET BIOCHEMICAL (TR-FRET)
[8] = 1 nM GSK3b, 2 μM ATP, 30 minute preincubation, Table 16, read-out: GSK3-B TR-FRET BIOCHEMICAL (TR-FRET)

Chain of GSK3b (GST-full length GSK3b) (P49841 whole entry): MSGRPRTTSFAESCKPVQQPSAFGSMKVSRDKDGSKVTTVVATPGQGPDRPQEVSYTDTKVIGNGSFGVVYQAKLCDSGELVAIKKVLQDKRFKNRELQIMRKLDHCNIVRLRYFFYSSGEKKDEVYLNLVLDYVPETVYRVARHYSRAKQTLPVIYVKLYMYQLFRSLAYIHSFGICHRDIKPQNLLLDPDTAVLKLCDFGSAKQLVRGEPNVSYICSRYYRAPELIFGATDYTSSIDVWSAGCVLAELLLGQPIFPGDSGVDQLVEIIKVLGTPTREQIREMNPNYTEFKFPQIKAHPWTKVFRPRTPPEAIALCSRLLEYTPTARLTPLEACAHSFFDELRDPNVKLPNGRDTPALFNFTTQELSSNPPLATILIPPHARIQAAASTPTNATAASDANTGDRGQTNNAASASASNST
Chain of GSK3α (GST-full length GSK3α) (P49840 whole entry): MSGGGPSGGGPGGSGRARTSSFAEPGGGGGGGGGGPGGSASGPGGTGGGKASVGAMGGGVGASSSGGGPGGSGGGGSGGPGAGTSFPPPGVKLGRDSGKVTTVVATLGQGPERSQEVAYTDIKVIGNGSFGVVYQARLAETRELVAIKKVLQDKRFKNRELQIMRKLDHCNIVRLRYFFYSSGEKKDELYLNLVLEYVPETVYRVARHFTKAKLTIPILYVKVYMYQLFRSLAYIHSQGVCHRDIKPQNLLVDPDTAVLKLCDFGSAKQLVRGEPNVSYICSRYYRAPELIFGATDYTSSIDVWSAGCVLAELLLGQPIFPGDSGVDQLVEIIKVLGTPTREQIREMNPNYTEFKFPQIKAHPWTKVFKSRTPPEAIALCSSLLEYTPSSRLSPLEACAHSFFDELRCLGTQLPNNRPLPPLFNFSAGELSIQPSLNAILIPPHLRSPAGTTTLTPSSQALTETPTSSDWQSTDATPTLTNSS

IC50 [1, 3] | IC50 [2, 4] | Structure (SMILES) | other results
> 5000 nM | > 5000 nM | CC[C@@]1(c2cccc(-c3c(C)c(C)nn3C)c2)C2=C(CC(C)(C)NC2=O)Nc2n[nH]cc21 [Compound 948818] | 
1000 to 5000 nM | > 5000 nM | CC[C@@]1(c2cccc(-c3ccnc4cnccc34)c2)C2=C(CC(C)(C)NC2=O)Nc2n[nH]cc21 [Compound 948819] | 
1000 to 5000 nM | > 5000 nM | CCC1(c2cccc(-c3cnn(C)c3C(F)(F)F)c2)C2=C(CC(C)(C)NC2=O)Nc2n[nH]cc21 (centres unmarked) [Compound 948826] | 
≤ 100 nM | 100 to 1000 nM | CCC1(c2cccc(-c3cnn(C)c3C#N)c2)C2=C(CC(C)(C)NC2=O)Nc2n[nH]cc21 (centres unmarked) [Compound 948827] | 
> 5000 nM | > 5000 nM | CC[C@@]1(c2cccc(-c3c(C)cncc3C)c2)C2=C(CC(C)(C)NC2=O)Nc2n[nH]cc21 [Compound 948829] | 
≤ 100 nM | 100 to 1000 nM | CCC1(c2cccc(-c3ccncc3F)c2)C2=C(CC(C)(C)NC2=O)Nc2n[nH]c(F)c21 (centres unmarked) [Compound 948999] | 
1000 to 5000 nM | > 5000 nM | CC[C@]1(c2cccc(-c3cnn(C)c3)c2)C2=C(CC(C)(C)NC2=O)Nc2n[nH]c(F)c21 [Compound 949002] | 
100 to 1000 nM | 100 to 1000 nM | CCC1(c2cccc(-c3cncn3C)c2)C2=C(CC(C)(C)NC2=O)Nc2n[nH]c(C(F)(F)F)c21 (centres unmarked) [Compound 949003] | 
≤ 100 nM | 100 to 1000 nM | CCC1(c2cccc(-c3ccnc(C)c3)c2)C2=C(CC(C)(C)N(C)C2=O)Nc2n[nH]cc21 (centres unmarked) [Compound 949004] | 
≤ 100 nM | ≤ 100 nM | CCC1(c2cccc(-c3cn(C)nc3C)c2)C2=C(CC(C)(C)N(C)C2=O)Nc2n[nH]cc21 (centres unmarked) [Compound 949005] | IC50 [1, 5]: ≤ 100 nM; IC50 [2, 6]: 1000 to 5000 nM
≤ 100 nM | 100 to 1000 nM | CC[C@]1(c2cccc(C(F)F)c2)C2=C(CC(C)(C)NC2=O)Nc2n[nH]cc21 [Compound 949006] | IC50 [1, 5]: 100 to 1000 nM; IC50 [2, 6]: > 5000 nM
1000 to 5000 nM | > 5000 nM | CC[C@@]1(c2cccc(C(F)F)c2)C2=C(CC(C)(C)NC2=O)Nc2n[nH]cc21 [Compound 949007] | 
1000 to 5000 nM | > 5000 nM | CCC1(c2cccc(-c3cn(C)nc3C)c2)C2=C(CC(C)(C)N(C)C2=O)Nc2n[nH]cc21 (centres unmarked) [Compound 949008] | 
> 5000 nM | > 5000 nM | CCC1(c2cccc(-c3ccnc(C)c3)c2)C2=C(CC(C)(C)N(C)C2=O)Nc2n[nH]cc21 (centres unmarked) [Compound 949009] | 
≤ 100 nM | ≤ 100 nM | CCC1(c2cccc(-c3cncn3C)c2)C2=C(CC(C)(C)NC2=O)Nc2n[nH]c(C(F)(F)F)c21 (centres unmarked) [Compound 949010] | IC50 [1, 5]: ≤ 100 nM; IC50 [2, 6]: ≤ 100 nM
≤ 100 nM | 100 to 1000 nM | CCC1(c2cccc(-c3cnn(C)c3)c2)C2=C(CC(C)(C)NC2=O)Nc2n[nH]c(F)c21 (centres unmarked) [Compound 949011] | 
≤ 100 nM | 100 to 1000 nM | CC[C@]1(c2cccc(-c3cnn(CCOC)c3)c2)C2=C(CC(C)(C)NC2=O)Nc2n[nH]cc21 [Compound 949105] | 
> 5000 nM | > 5000 nM | CC[C@@]1(c2cccc(-c3cnn(C(C)(C)C)c3)c2)C2=C(CC(C)(C)NC2=O)Nc2n[nH]cc21 [Compound 949107] | 
≤ 100 nM | 100 to 1000 nM | CC[C@]1(c2cccc(-c3cc(OC)ncc3F)c2)C2=C(CC(C)(C)NC2=O)Nc2n[nH]cc21 [Compound 949109] | 
100 to 1000 nM | 1000 to 5000 nM | CCC1(c2cccc(-c3cn(C)nc3C(C)C)c2)C2=C(CC(C)(C)NC2=O)Nc2n[nH]cc21 (centres unmarked) [Compound 949111] | 
≤ 100 nM | 100 to 1000 nM | CC[C@]1(c2cccc(-c3cnn(C(C)(C)C)c3)c2)C2=C(CC(C)(C)NC2=O)Nc2n[nH]cc21 [Compound 949112] | IC50 [1, 5]: > 5000 nM; IC50 [2, 6]: > 5000 nM
1000 to 5000 nM | > 5000 nM | CCC1(c2cccc(-c3cnn(CCOC)c3)c2)C2=C(CC(C)(C)NC2=O)Nc2n[nH]cc21 (centres unmarked) [Compound 949114] | 
> 5000 nM | > 5000 nM | CCC1(c2cccc(-c3cc(OC)nc4ccccc34)c2)C2=C(CC(C)(C)NC2=O)Nc2n[nH]cc21 (centres unmarked) [Compound 949116] | 
≤ 100 nM | ≤ 100 nM | CCC1(c2cccc(-c3cn(C)nc3C)c2)C2=C(CC(C)(C)NC2=O)Nc2n[nH]c(C(F)F)c21 (centres unmarked) [Compound 949170] | 
≤ 100 nM | ≤ 100 nM | CCC1(c2cccc(-c3cnn(C)c3)c2)C2=C(CC(C)(C)NC2=O)Nc2n[nH]c(C(F)F)c21 (centres unmarked) [Compound 949171] | IC50 [1, 5]: ≤ 100 nM; IC50 [2, 6]: 1000 to 5000 nM

The next lines start with the molecule.

Structure (SMILES) | IC50 [1, 3] | IC50 [2, 4] | other results
CCC1(c2cccc(-c3ccnc(C)c3)c2)C2=C(CC(C)(C)NC2=O)Nc2n[nH]c(Cl)c21 (centres unmarked) [Compound 948998] | ≤ 100 nM | ≤ 100 nM | IC50 [1, 5]: 100 to 1000 nM; IC50 [2, 6]: 1000 to 5000 nM
CC[C@]1(c2cccc(N3CCOCC3)c2)C2=C(CC(C)(C)NC2=O)Nc2n[nH]c(C(F)(F)F)c21 [Compound 949000] | 100 to 1000 nM | 100 to 1000 nM | 
CCC1(c2cccc(-c3ccnc(C)c3)c2)C2=C(CC(C)(C)NC2=O)Nc2n[nH]c(F)c21 (centres unmarked) [Compound 949001] | 100 to 1000 nM | 100 to 1000 nM | 
CC[C@@]1(c2cccc(-c3ccnc(C)c3)c2)C2=C(CC(C)(C)NC2=O)Nc2n[nH]c(F)c21 [Compound 949012] | ≤ 100 nM | 100 to 1000 nM | 
CC[C@@]1(c2cccc(N3CCOCC3)c2)C2=C(CC(C)(C)NC2=O)Nc2n[nH]c(C(F)(F)F)c21 [Compound 949013] | ≤ 100 nM | ≤ 100 nM | 
CCC1(c2cccc(C(F)(F)F)c2)C2=C(CCN(c3cccc(C)c3)C2=O)Nc2n[nH]cc21 (centres unmarked) [Compound 949040] | ≤ 100 nM | 100 to 1000 nM | 
CC[C@]1(c2cccc(C(F)(F)F)c2)C2=C(CCN(c3cccc(C)c3)C2=O)Nc2n[nH]cc21 [Compound 949041] | 1000 to 5000 nM | > 5000 nM | 
CCC1(c2cccc(C3CCCC3)c2)C2=C(CC(C)(C)CC2=O)Nc2n[nH]cc21 (centres unmarked) [Compound 949082] |  |  | IC50 ([1]; 1 nM GSK3α, 4 μM ATP, 30 minute preincubation, Table 16, read-out: GSK3-A TR-FRET BIOCHEMICAL (TR-FRET), IC50): ≤ 100 nM; IC50 ([2]; 1 nM GSK3b, 2 μM ATP, 30 minute preincubation, Table 16, read-out: GSK3-B TR-FRET BIOCHEMICAL (TR-FRET), IC50): ≤ 100 nM
CC[C@]1(c2cccc(OCC(F)F)c2)C2=C(CC(C)(C)CC2=O)Nc2n[nH]cc21 [Compound 949113] |  |  | IC50 [1, 7]: 1000 to 5000 nM; IC50 [2, 8]: > 5000 nM
CC[C@@]1(c2cccc(C(F)(F)F)c2)C2=C(CCN(c3ccc(C)cc3)C2=O)Nc2n[nH]cc21 [Compound 949118] | ≤ 100 nM | 100 to 1000 nM | 
CC[C@]1(c2cccc(C(F)(F)F)c2)C2=C(CCN(c3ccc(C)cc3)C2=O)Nc2n[nH]cc21 [Compound 949119] | 1000 to 5000 nM | > 5000 nM | 
CCC1(c2cccc(C(F)(F)F)c2)C2=C(CCN(c3cnc(OC)nc3)C2=O)Nc2n[nH]c(C)c21 (centres unmarked) [Compound 949126] | ≤ 100 nM | 100 to 1000 nM | 
CC[C@]1(c2cccc(C(F)(F)F)c2)C2=C(CCN(c3cnc(OC)nc3)C2=O)Nc2n[nH]cc21 [Compound 949127] | 1000 to 5000 nM | > 5000 nM | 
CCC1(c2cccc(C(F)(F)F)c2)C2=C(CCN(c3ccccc3C)C2=O)Nc2n[nH]cc21 (centres unmarked) [Compound 949128] | ≤ 100 nM | 100 to 1000 nM | 
CC[C@]1(c2cccc(C(F)(F)F)c2)C2=C(CCN(c3ccccc3C)C2=O)Nc2n[nH]cc21 [Compound 949129] | > 5000 nM | > 5000 nM | 
CCC1(c2cccc(C3CN(C(C)=O)C3)c2)C2=C(CC(C)(C)CC2=O)Nc2n[nH]cc21 (centres unmarked) [Compound 949131] |  |  | IC50 [1, 7]: 100 to 1000 nM; IC50 [2, 8]: 1000 to 5000 nM
CC[C@]1(c2cccc(C3CN(C(C)=O)C3)c2)C2=C(CC(C)(C)CC2=O)Nc2n[nH]cc21 [Compound 949132] |  |  | IC50 [1, 7]: > 5000 nM; IC50 [2, 8]: > 5000 nM
CCC1(c2cccc(-c3ccnc(C)c3)c2)C2=C(CC(C)(C)NC2=O)Nc2n[nH]c(C(F)F)c21 (centres unmarked) [Compound 949169] | ≤ 100 nM | ≤ 100 nM | IC50 [1, 5]: 100 to 1000 nM; IC50 [2, 6]: 1000 to 5000 nM
CCC1(c2cccc(C(C)C)c2)C2=C(CC(C)(C)NC2=O)Nc2n[nH]c(C)c21 (centres unmarked) [Compound 949173] | ≤ 100 nM | ≤ 100 nM | 
CCC1(c2cccc(-c3cc(C)nnc3C)c2)C2=C(CC(C)(C)NC2=O)Nc2n[nH]c(C(F)(F)F)c21 (centres unmarked) [Compound 949174] | ≤ 100 nM | ≤ 100 nM | IC50 [1, 5]: 100 to 1000 nM; IC50 [2, 6]: 100 to 1000 nM
CC[C@]1(c2cccc(S(=O)(=O)CC3CC3)c2)C2=C(CC(C)(C)NC2=O)Nc2n[nH]c(C(F)(F)F)c21 [Compound 949175] | ≤ 100 nM | ≤ 100 nM | IC50 [1, 5]: ≤ 100 nM; IC50 [2, 6]: ≤ 100 nM
CC[C@]1(c2cccc(S(=O)(=O)C3CC3)c2)C2=C(CC(C)(C)N(C)C2=O)Nc2n[nH]cc21 [Compound 949177] | ≤ 100 nM | ≤ 100 nM | IC50 [1, 5]: 100 to 1000 nM; IC50 [2, 6]: 1000 to 5000 nM
CC[C@]1(c2cccc(N3CCCCC3)c2)C2=C(CC(C)(C)NC2=O)Nc2n[nH]c(C(F)(F)F)c21 [Compound 949178] | 100 to 1000 nM | 1000 to 5000 nM | 
